In PMC4371799 (Clinical Epigenetics, 2015):
Where “and” joins values, the source holds several entries; their conditions need not be identical. Equal values may be shown once.

Columns and labels:
[1] = system: CTR1; set-up: method as in PMID 19470736; conditions: phase I clinical trial, refractory solid tumors and lymphomas; cited from earlier work
[2] = Oxaliplatin plasma pharmacokinetics, non-compartmental analysis; conditions: for AUCall / AUCinf / C max / CL / V d / t 1/2: C1D2, mean (SD)
Protocol: This phase was followed by an expansion phase in which patients with CRC were treated with the maximum tolerated dose (MTD). Patients were treated with six cycles of therapy, unless they withdrew consent or experienced severe adverse events or progressive disease.
Oxaliplatin pharmacokinetics were assessed on day 2 during cycle 1 to permit correlation of pharmacokinetic parameters with toxicity and treatment outcome. Blood samples (10 ml per sample) were collected immediately prior to oxaliplatin infusion, immediately after infusion, and at 1, 2, 4, 6, 8, 12, and 24 h after infusion. Samples were assayed for total and unbound platinum using either inductively coupled plasma mass spectrometry or atomic absorption spectroscopy methods following isolation of the drug from plasma. Compartmental and non-compartmental models were used to derive pharmacokinetic parameters, including Cmax, AUC, t1/2, Vd, and CL.

[3] = Total platinum levels in snap-frozen tumor samples (ICP-MS); format: in vivo, patients
Text: The tumor tissue was frozen and stored in cryogenic storage tubes before being analyzed for total platinum content using inductively coupled plasma mass spectrometry. If a sufficient amount of the sample remained following this analysis, the tissue was subjected to homogenization and extraction with 0.2% formic acid and acetonitrile for analysis by ultra-performance liquid chromatography/mass spectrometry for oxaliplatin content.

[4] = set-up: method as in PMID 10778943; conditions: traditional infusion once every 2 to 3 weeks; cited from earlier work
[5] = oxaliplatin treatment reported by other investigators; cited from earlier work
[6] = azacitidine/oxaliplatin 20/15 mg/m^2, n = 3
[7] = azacitidine/oxaliplatin 20/22.5 mg/m^2, n = 3
[8] = azacitidine/oxaliplatin 20/30 mg/m^2, n = 3
[9] = azacitidine/oxaliplatin 25/30 mg/m^2, n = 3
[10] = azacitidine/oxaliplatin 40/30 mg/m^2, n = 3
[11] = azacitidine/oxaliplatin 50/30 mg/m^2, n = 22
[12] = oxaliplatin 15 to 30 mg/m^2/day IV over 2 h, days 2 to 5, mean over dose levels
[13] = post-dose vs pre-dose, five post-dose tumor samples, dose level 6
[14] = seven patients, expansion phase, before treatment

In the case of `Nc1ncn([C@H]2C[C@H](O)[C@@H](CO)O2)c(=O)n1` [decitabine], the “effect on CTR1 expression” value [1] is listed as “significantly increased CTR1 expression”.

With `O=C1[O][Pt]2([NH][C@@H]3CCCC[C@H]3[NH]2)[O]C1=O` [oxaliplatin] the AUCall [2, 6] was 704.3 (228.5) h-ng/ml, the AUCinf [2, 6] was 1,003.5 (211.1) h-ng/ml and the C max [2, 6] was 337.3 (141.3) ng/ml. The CL [2, 6] was 15.5 (3.7) l/h/m^2, the V d [2, 6] was 829.2 (580.0) l/m^2 and the “t 1/2” value [2, 6] was 38.9 (31.9) h. For the same molecule, the AUCall [2, 7] was 1,178.4 (238.0) h-ng/ml, the AUCinf [2, 7] was 1,359.3 (167.1) h-ng/ml and the C max [2, 7] was 573.5 (131.1) ng/ml. For the same molecule, the CL [2, 7] was 16.7 (2.0) l/h/m^2, the V d [2, 7] was 443.5 (232.2) l/m^2 and the “t 1/2” value [2, 7] was 17.9 (7.7) h. For the same molecule, the AUCall [2, 8] was 1,149.0 (930.3) h-ng/ml, the AUCinf [2, 8] was 1,411.6 (1,065.1) h-ng/ml and the C max [2, 8] was 446.9 (447.8) ng/ml. The CL [2, 8] was 29.1 (15.7) l/h/m^2, the V d [2, 8] was 794.5 (703.8) l/m^2 and the “t 1/2” value [2, 8] was 18.6 (11.9) h. For the same molecule, the AUCall [2, 9] was 1,369.1 (556.1) h-ng/ml, the AUCinf [2, 9] was 1,919.4 (923.3) h-ng/ml and the C max [2, 9] was 582.6 (270.3) ng/ml. The CL [2, 9] was 19.2 (11.4) l/h/m^2, the V d [2, 9] was 587.5 (240.1) l/m^2 and the “t 1/2” value [2, 9] was 23.7 (10.2) h. For the same molecule, the AUCall [2, 10] was 1,543.5 (502.1) h-ng/ml, the AUCinf [2, 10] was 1,867.0 (387.0) h-ng/ml and the C max [2, 10] was 751.7 (275.5) ng/ml. For the same molecule, the CL [2, 10] was 16.6 (3.9) l/h/m^2, the V d [2, 10] was 613.8 (541.2) l/m^2 and the “t 1/2” value [2, 10] was 23.3 (15.6) h. For the same molecule, the AUCall [2, 11] was 1,286.3 (627.0) h-ng/ml, the AUCinf [2, 11] was 1,456 h-ng/ml and 1,455.9 (657.6) h-ng/ml and the C max [2, 11] was 650 ng/ml and 649.4 (384.5) ng/ml. The CL [2, 11] was 24.5 l/h/m^2 and 24.5 (10.2) l/h/m^2, the V d [2, 11] was 554 l/m^2 and 554.0 (250.7) l/m^2 and the “t 1/2” value [2, 11] was 16.5 (7.1) h. The “AUCinf, mean of the current infusion regimen” value [2, 12] was 1,503 ng-h/ml, the “Cmax, mean of the current infusion regimen” value [2, 12] was 557 ng/mL and the kinetics of elimination ([2]; plasma, all dose levels) was “first-order kinetics of elimination”. The “increase of tumor platinum concentration, median” value [3, 13] was 3.8 fold, the “increase of tumor platinum concentration, range” value [3, 13] was 3- to 18 fold and the “change of tumor platinum concentration” value ([3]; post-dose vs pre-dose, the two tumor samples with the highest pre-dose level) was “remained unchanged”. For the same molecule, the “pre-dose platinum level in tumor, median” value [3, 14] was 0.59 μg/g tumor, the “pre-dose platinum level in tumor, range” value [3, 14] was under 0.25 to 5.8 μg/g tumor and the “AUCinf, mean, traditional infusion” value [4] was 9,907 ng-h/ml. For the same molecule, the “Cmax, mean, traditional infusion” value [4] was 877 ng/mL, the “incidence of peripheral neuropathy, all grades” value [5] was 40% to 50 and the “incidence of peripheral neuropathy, grade ≥3” value [5] was 10% to 20.
